Structures are written as SMILES.

The subject of the first series is Heliothis armigera. The series can be described thus: Insecticidal activity, artificial feed surface coating method. Conditions: 125 mg/L test solution. In kind it is in vivo. The protocol:
(§1) The insecticidal activity of sulfonyl functional compounds in the above embodiments were tested for agricultural biological functions, and the targets of insecticidal activity were Heliothis armigera, Plutella xylostella and Aphiscraccivora.
(§2) Using Heliothis armigera and Plutella xylostella as target, the insecticidal activities of sulfonyl functional compounds were tested by conventional artificial feed surface coating method. 300 microliters of artificial feed and 20 microliters of test solution were added to each well of the 24-well cell culture plate. The test solution was used in different concentrations and repeated twice (Rep1 and Rep2). The concentrations of the test solution were 500 mg/L, 250 mg/L and 125 mg/L, respectively.
(§3) The insecticidal activity of sulfonyl functional compounds against Aphiscraccivora was tested by the method of dipping. Mother liquors were prepared by the sulfonyl functional compounds provided in the above embodiments dissolved in ethanol, respectively. 500 mg/L, 250 mg/L or 125 mg/L test solution could be prepared by diluting the different mother liquors with a liquor that contained 0.1 mL/L of emulgator (Tween-80). Every test solution was tested twice (Rep1 and Rep2). A blank control was set up, and the activity results were compared with the blank control. The mortality rate of 0˜30%, 30˜50%, 50-70%, 70˜90%, or 90˜100% could be orderly set as 0, 3, 5, 7, or 9.
On to `CC1=NNC(=O)N(N=Cc2ccc[n+](CCCS(=O)(=O)[O-])c2)C1` [IV-1], for which the “Insecticidal activity (mortality rate grade) Heliothis armigera” value was 0 (mortality rate of 0˜30%).
Same read-out and setting: under `CC1=NNC(=O)N(N=Cc2ccc[n+](CC=CS(=O)(=O)[O-])c2)C1` [IV-2] stands 0 (mortality rate of 0˜30%); under `CC1=NNC(=O)N(N=Cc2ccc[n+](CCCCS(=O)(=O)[O-])c2)C1` [IV-3], 0 (mortality rate of 0˜30%).
As for `CC(=O)N1N=C(C)CN(N=Cc2ccc[n+](CCCS(=O)(=O)[O-])c2)C1=O` [IV-4], the “Insecticidal activity (mortality rate grade) Heliothis armigera” value is reported as 0 (mortality rate of 0˜30%).

Staying with this series, now noted: 250 mg/L test solution.
For the compound `CC1=NNC(=O)N(N=Cc2ccc[n+](CCCS(=O)(=O)[O-])c2)C1` [IV-1], the “Insecticidal activity (mortality rate grade) Heliothis armigera” value was 3 (30˜50%).
For the compound `CC1=NNC(=O)N(N=Cc2ccc[n+](CC=CS(=O)(=O)[O-])c2)C1` [IV-2], the “Insecticidal activity (mortality rate grade) Heliothis armigera” value is 0 (mortality rate of 0˜30%).
Take `CC1=NNC(=O)N(N=Cc2ccc[n+](CCCCS(=O)(=O)[O-])c2)C1` [IV-3]: the “Insecticidal activity (mortality rate grade) Heliothis armigera” value is reported as 0 (mortality rate of 0˜30%).
Regarding `CC(=O)N1N=C(C)CN(N=Cc2ccc[n+](CCCS(=O)(=O)[O-])c2)C1=O` [IV-4], the “Insecticidal activity (mortality rate grade) Heliothis armigera” value is 3 (30˜50%).

Still in this series, the particulars now being: 500 mg/L test solution.
`CC1=NNC(=O)N(N=Cc2ccc[n+](CCCS(=O)(=O)[O-])c2)C1` [IV-1]: the “Insecticidal activity (mortality rate grade) Heliothis armigera” value is 3 (30˜50%).
On the same count and under the same terms, under `CC1=NNC(=O)N(N=Cc2ccc[n+](CC=CS(=O)(=O)[O-])c2)C1` [IV-2] stands 0 (mortality rate of 0˜30%); under `CC1=NNC(=O)N(N=Cc2ccc[n+](CCCCS(=O)(=O)[O-])c2)C1` [IV-3], 3 (30˜50%).
The same measure, in the same setting: under `CC(=O)N1N=C(C)CN(N=Cc2ccc[n+](CCCS(=O)(=O)[O-])c2)C1=O` [IV-4] stands 5 (50-70%).

Another series has as its system Plutella xylostella. Described as above. Format: in vivo. Conditions: 125 mg/L test solution. The procedure:
as §1, §2, §3
As for `CC1=NNC(=O)N(N=Cc2ccc[n+](CCCS(=O)(=O)[O-])c2)C1` [IV-1], the “Insecticidal activity (mortality rate grade) Plutella xylostella” value is listed as 3 (30˜50%).
`CC1=NNC(=O)N(N=Cc2ccc[n+](CC=CS(=O)(=O)[O-])c2)C1` [IV-2]: the “Insecticidal activity (mortality rate grade) Plutella xylostella” value is on record as 0 (mortality rate of 0˜30%).
The same measure, in the same setting: under `CC1=NNC(=O)N(N=Cc2ccc[n+](CCCCS(=O)(=O)[O-])c2)C1` [IV-3] stands 0 (mortality rate of 0˜30%); under `CC(=O)N1N=C(C)CN(N=Cc2ccc[n+](CCCS(=O)(=O)[O-])c2)C1=O` [IV-4], 3 (30˜50%).

The series is the same for the next values; noted with them: 250 mg/L test solution.
On to `CC1=NNC(=O)N(N=Cc2ccc[n+](CCCS(=O)(=O)[O-])c2)C1` [IV-1], for which the “Insecticidal activity (mortality rate grade) Plutella xylostella” value is 3 (30˜50%).
On the same count and under the same terms, under `CC1=NNC(=O)N(N=Cc2ccc[n+](CC=CS(=O)(=O)[O-])c2)C1` [IV-2] stands 3 (30˜50%); under `CC1=NNC(=O)N(N=Cc2ccc[n+](CCCCS(=O)(=O)[O-])c2)C1` [IV-3], 3 (30˜50%).
In the case of `CC(=O)N1N=C(C)CN(N=Cc2ccc[n+](CCCS(=O)(=O)[O-])c2)C1=O` [IV-4], the “Insecticidal activity (mortality rate grade) Plutella xylostella” value was 5 (50-70%).

The same series, now with this note: 500 mg/L test solution.
For the compound `CC1=NNC(=O)N(N=Cc2ccc[n+](CCCS(=O)(=O)[O-])c2)C1` [IV-1], the “Insecticidal activity (mortality rate grade) Plutella xylostella” value is recorded as 5 (50-70%).
The same measure, in the same setting: under `CC1=NNC(=O)N(N=Cc2ccc[n+](CC=CS(=O)(=O)[O-])c2)C1` [IV-2] stands 5 (50-70%); under `CC1=NNC(=O)N(N=Cc2ccc[n+](CCCCS(=O)(=O)[O-])c2)C1` [IV-3], 3 (30˜50%); under `CC(=O)N1N=C(C)CN(N=Cc2ccc[n+](CCCS(=O)(=O)[O-])c2)C1=O` [IV-4], 5 (50-70%).

The next series concerns Aphiscraccivora. Briefly: Insecticidal activity, dipping method. Format: in vivo. The conditions noted are these: 125 mg/L test solution. The protocol: as §1, §3
In the case of `CC1=NNC(=O)N(N=Cc2ccc[n+](CCCS(=O)(=O)[O-])c2)C1` [IV-1], the “Insecticidal activity (mortality rate grade) Aphiscraccivora” value was 9 (90˜100%).
The same measure, in the same setting: under `CC1=NNC(=O)N(N=Cc2ccc[n+](CC=CS(=O)(=O)[O-])c2)C1` [IV-2] stands 7 (70˜90%).
Same read-out and setting: under `CC1=NNC(=O)N(N=Cc2ccc[n+](CCCCS(=O)(=O)[O-])c2)C1` [IV-3] stands 9 (90˜100%); under `CC(=O)N1N=C(C)CN(N=Cc2ccc[n+](CCCS(=O)(=O)[O-])c2)C1=O` [IV-4], 9 (90˜100%).

Still in this series, the particulars now being: 250 mg/L test solution.
Regarding `CC1=NNC(=O)N(N=Cc2ccc[n+](CCCS(=O)(=O)[O-])c2)C1` [IV-1], the “Insecticidal activity (mortality rate grade) Aphiscraccivora” value is on record as 9 (90˜100%).
Same read-out and setting: under `CC1=NNC(=O)N(N=Cc2ccc[n+](CC=CS(=O)(=O)[O-])c2)C1` [IV-2] stands 9 (90˜100%); under `CC1=NNC(=O)N(N=Cc2ccc[n+](CCCCS(=O)(=O)[O-])c2)C1` [IV-3], 9 (90˜100%).
Still for that read-out and setting: under `CC(=O)N1N=C(C)CN(N=Cc2ccc[n+](CCCS(=O)(=O)[O-])c2)C1=O` [IV-4] stands 9 (90˜100%).

Still in this series, the particulars now being: 500 mg/L test solution.
For `CC1=NNC(=O)N(N=Cc2ccc[n+](CCCS(=O)(=O)[O-])c2)C1` [IV-1], the “Insecticidal activity (mortality rate grade) Aphiscraccivora” value is listed as 9 (90˜100%).
Take `CC1=NNC(=O)N(N=Cc2ccc[n+](CC=CS(=O)(=O)[O-])c2)C1` [IV-2]: the “Insecticidal activity (mortality rate grade) Aphiscraccivora” value is 9 (90˜100%).
Regarding `CC1=NNC(=O)N(N=Cc2ccc[n+](CCCCS(=O)(=O)[O-])c2)C1` [IV-3], the “Insecticidal activity (mortality rate grade) Aphiscraccivora” value is 9 (90˜100%).
The same measure, in the same setting: under `CC(=O)N1N=C(C)CN(N=Cc2ccc[n+](CCCS(=O)(=O)[O-])c2)C1=O` [IV-4] stands 9 (90˜100%).

These data come from patent publication US20250084061A1, “SULFONYL FUNCTIONAL COMPOUND, METHODS AND USES THEREOF” (Hubei Biopesticide Engineering Research Centre, priority 2023, published 2025).
